Reference: ChEMBL document CHEMBL1127566, “Thienyl and thiazolyl acyclic analogues of 5-deazatetrahydrofolic acid” (J Med Chem, 1994)
Each block holds one molecule with its values, some of them ahead of it.

Key:
CCRF-CEM = test: In vitro antitumor activity was assessed from rate of cell growth of CCRF/CEM cell line; type: functional, cell-based; settings: Homo sapiens
MCF7 = test: Ability to inhibit growth of MCF-7 human breast adenocarcinoma in vitro; type: functional, cell-based
MOLT-4 = test: Ability to inhibit [3H]methotrexate transport into MOLT-4 cells in vitro; type: functional, cell-based; settings: Homo sapiens
[1] = test system: folylpolyglutamate synthase (FPGS); test: Km of Hog folyl-poly-glutamate synthase (FPGS) relative to aminopterin; design: species or system Sus scrofa; settings: pig, hog folylpolyglutamate synthase (FPGS) enzyme
Sus scrofa = species: Sus scrofa; test: Vmax of Hog folyl-poly-glutamate synthase (FPGS) relative to aminopterin; settings: pig, in vitro
[2] = substrate: Nc1nc(N)c(CCCNc2ccc(C(=O)N[C@@H](CCC(=O)O)C(=O)O)s2)c(O)n1; test: (§1) Vmax of Hog Folyl-polyglutamate synthase relative to aminopterin; settings: Sus scrofa
[3] = substrate: Nc1nc(N)c(CCCNc2cnc(C(=O)N[C@@H](CCC(=O)O)C(=O)O)s2)c(O)n1; test: as §1; settings: Sus scrofa
[4] = substrate: Nc1nc(N)c(CCCNc2ccc(C(=O)N[C@@H](CCC(=O)O)C(=O)O)s2)c(O)n1; test: (§2) Km of Hog Folyl-polyglutamate synthase relative to aminopterin; settings: Sus scrofa
[5] = substrate: Nc1nc(N)c(CCCNc2cnc(C(=O)N[C@@H](CCC(=O)O)C(=O)O)s2)c(O)n1; test: as §2; settings: Sus scrofa

Molecule: Nc1nc(O)c2c(n1)NCC(CCc1ccc(C(=O)N[C@@H](CCC(=O)O)C(=O)O)s1)C2 (stereo partly specified)
IC50 (CCRF-CEM): 2.3 nM

Molecule: Nc1nc(N)c(CCCNc2cnc(C(=O)N[C@@H](CCC(=O)O)C(=O)O)s2)c(O)n1
IC50 (MCF7): 4 nM
IC50 (MOLT-4): 800 nM

Molecule: Nc1nc2c(c(=O)[nH]1)C[C@@H](CCc1ccc(C(=O)N[C@@H](CCC(=O)O)C(=O)O)cc1)CN2 [LOMETREXOL]
Km [1]: 17.5 µM
Vmax (Sus scrofa): 97%
IC50 (MCF7): 18 nM
IC50 (MOLT-4): 1500 nM
IC50 (CCRF-CEM): 15 nM

B1: Folylpolyglutamate synthase, mitochondrial (Homo sapiens), Q05932 (protein)
chain: MSRARSHLRAALFLAAASARGITTQVAARRGLSAWPVPQEPSMEYQDAVRMLNTLQTNAGYLEQVKRQRGDPQTQLEAMELYLARSGLQVEDLDRLNIIHVTGTKGKGSTCAFTECILRSYGLKTGFFSSPHLVQVRERIRINGQPISPELFTKYFWRLYHRLEETKDGSCVSMPPYFRFLTLMAFHVFLQEKVDLAVVEVGIGGAYDCTNIIRKPVVCGVSSLGIDHTSLLGDTVEKIAWQKGGIFKQGVPAFTVLQPEGPLAVLRDRAQQISCPLYLCPMLEALEEGGPPLTLGLEGEHQRSNAALALQLAHCWLQRQDRHGAGEPKASRPGLLWQLPLAPVFQPTSHMRLGLRNTEWPGRTQVLRRGPLTWYLDGAHTASSAQACVRWFRQALQGRERPSGGPEVRVLLFNATGDRDPAALLKLLQPCQFDYAVFCPNLTEVSSTGNADQQNFTVTLDQVLLRCLEHQQHWNHLDEEQASPDLWSAPSPEPGGSASLLLAPHPPHTCSASSLVFSCISHALQWISQGRDPIFQPPSPPKGLLTHPVAHSGASILREAAAIHVLVTGSLHLVGGVLKLLEPALSQ
Vmax [2]: 118%
Vmax [3]: 99.3%
Km [4]: 9.3 µM
Km [5]: 8.6 µM

Continued, values first:

IC50 (CCRF-CEM): 27 nM
Molecule: Nc1nc(O)c2c(n1)NCC(CCc1ccc(C(=O)N[C@@H](CCC(=O)O)C(=O)O)o1)C2 (stereo partly specified)

IC50 (MCF7): 38 nM
IC50 (MOLT-4): 1600 nM
Molecule: Nc1nc(N)c(CCCNc2ccc(C(=O)N[C@@H](CCC(=O)O)C(=O)O)s2)c(O)n1

IC50 (MCF7): 37 nM
Molecule: Nc1nc(N)c(CCCNc2ccc(C(=O)N[C@@H](CCC(=O)O)C(=O)O)cc2)c(O)n1
